These results are taken from patent publication US20210332161A1, “CHLORINATED DERIVATIVE OF HYALURONIC ACID, METHOD OF PREPARATION THEREOF, A COMPOSITION CONTAINING THE DERIVATIVE, AND USE THEREOF” (CONTIPRO A.S., priority 2018, published 2021).

Where “and” joins values, the source holds several entries; their conditions need not be identical. Identical values can stand only once.

Series [1] in a line: Stability of hyaluronan chloramide on standing (DS by NMR). The settings on record: initial DS 85%. The class given is physicochemical. On the procedure: 5 g of hyaluronan (Mw 2200 kg·mol^−1) were dissolved in 250 ml of distilled water. Subsequently, 2 ml of acetic acid were added and the solution was stirred at the temperature of 20° C. for 15 minutes. Then, a sodium salt of dichloroisocyanuric acid in the amount of 3.2 g (1 eq.) was added. Then, the mixture was stirred at a temperature of 20° C. for 48 hours. Subsequently, the mixture was precipitated by 2.5 litres of isopropanol and filtered. The solid portion was washed with 2 litres of isopropanol, whereupon it was vacuum dried for 20 hours. DS 85% (determined from NMR). The NMR solution (7 mg of the product in 0.7 ml of D2O) was measured after another 5 days of standing at 20° C. The DS value was determined as 84%. The solid portion in the form of powder was let stand at 20° C. for 100 days and after that the sample was dissolved in D2O. The DS value was determined as 84%.

The subject of the next series is VERO cellular substrate. In words: Plaque test groups without virus (examination of the cells / of toxicity). The class given is cell-based, Cercopithecus aethiops. The settings on record: 1% in PBS, no virus. How it is done: (§1) Number of repeats −5, tested substance prepared according to Example 19, virus subject to testing: CVB3 (Nancy) in the concentration of 3×10E7, 5 PFU/ml, VERO cellular substrate
(§2) After having been subject to 10^7-fold dilution in the volume of 1.5 ml, the virus was adsorbed on the cell substrate in Petri dishes for 30 minutes. The negative control contained PBS without viruses. Afterwards, the virus was removed by suction and the cells were interlayered by the tested substance (or by HA and PBS contained in the negative control materials), incubation at 37° C. and in the presence of 5% of CO2, for 5 hours. The cells were washed with PBS and covered by a layer of a medium containing EMEM supplemented with 5% of inactivated FBS and 0.75% of agarose. The incubation in an environment containing 5% of CO2 at 37° C. for 4 days. Subsequently, the medium was removed, the cells were stained by a crystal violet dye and the counts of plaques were determined. During the test, the antiviral activity was proportional to the reduction of the number of plaques.

The next series relates to CVB3 (Nancy). In words: Testing of antiviral activity based on the plaque reduction. It counts as cell-based. The following applies: for PFU on PD, Average: average of 5 repeats; for PFU on PD, Average / PFU on PD: VERO cells; for PFU on PD: single Petri dishes (5 repeats), 5 hours incubation, listed as HA chloramide. How it is done:
as §1, §2

The mark [2] stands for this setting: single Petri dishes (5 repeats).

On to Hyaluronan Chloramide [Example 16], for which the “DS value of the NMR solution after standing” value in series [1] (7 mg of product in 0.7 ml D2O, another 5 days of standing at 20° C.) is 84%. Further, the “DS value of the solid powder after standing” value in series [1] (powder let stand at 20° C. for 100 days, then dissolved in D2O) amounted to 84%.

On to Hyaluronan Chloramide [Example 19], for which, in the series with VERO cellular substrate (average of 5 repeats), the “PFU on PD, Average, Examination of the cells with HA” value is recorded as 0 PFU and the “PFU on PD, Average, Examination of toxicity” value came to 0 PFU. For the same substance, in the series on VERO cellular substrate (setting [2]), the “PFU on PD, Examination of the cells with HA” value was determined as 0 PFU and the “PFU on PD, Examination of toxicity” value is 0 PFU. In the series on CVB3 (Nancy) (0.1% in PBS), the “PFU on PD, Average” value came out at 7.8 PFU; the “PFU on PD” value is 5 PFU and 7 PFU and 10 PFU and 8 PFU and 9 PFU. Besides, in the series with CVB3 (Nancy) (0.5% in PBS), the “PFU on PD, Average” value is recorded as 7.2 PFU; the “PFU on PD” value is 8 PFU and 5 PFU and 7 PFU. Moreover, the “PFU on PD, Average” value in the series on CVB3 (Nancy) (1% in PBS) was found to be 2.6 PFU. The “inhibition of the viral growth compared to the standard with HA” value in the series with CVB3 (Nancy) (Tests 1, 2 and 3 (0.1, 0.5, 1% in PBS), more efficient with increasing concentration) is given as “inhibition of the viral growth”.

With “Hyaluronic acid [HA, reference compound]”, the “PFU on PD, Average” value with CVB3 (Nancy) (1% in PBS) is 10.4 PFU.
